{"source": "paper PMC9606171", "about": "“Synthetic PPAR Agonist DTMB Alleviates Alzheimer’s Disease Pathology by Inhibition of Chronic Microglial Inflammation in 5xFAD Mice” (Neurotherapeutics, 2022)", "key": {"[1]": {"target": "T1, PPARα (Homo sapiens, UniProt Q07869)", "T1 construct": "pcDNA5-GAL4-PPAR LBD, pG5-luc, and Rluc vector (as control) were transfected into HEK293A cells; expressed in transfected cells; host or cells: HEK293A", "T1 sequence (Q07869 239-466 limits assumed)": "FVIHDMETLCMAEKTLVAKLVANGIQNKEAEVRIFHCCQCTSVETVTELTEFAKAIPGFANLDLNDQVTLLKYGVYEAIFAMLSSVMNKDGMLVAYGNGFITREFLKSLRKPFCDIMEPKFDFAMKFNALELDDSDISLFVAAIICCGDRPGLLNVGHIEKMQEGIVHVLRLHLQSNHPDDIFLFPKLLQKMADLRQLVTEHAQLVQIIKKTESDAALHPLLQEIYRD", "test": "Gal4-transactivation luciferase assay in HEK293A cells, PPARα LBD", "type": "cell-based", "description": "HEK293A cells were transfected with the GAL4-reporter plasmids and pGL4.74 (Promega, Madison, WI, USA) as an internal standard through electroporation using a Neon Transfection System (Invitrogen, Carlsbad, CA, USA). All vector materials were provided by Professor Yuichiro Kanno at Toho University. Cells were treated with DTMB and each positive control compound for 24 h after overnight incubation. Cells were then harvested and resuspended in luciferase lysis buffer (Promega), followed by incubation on ice for 10 min. Cell debris was removed by centrifugation at 20,000 × g at 4 °C for 10 min, and the supernatants were used for luciferase assay. Using a dual-luciferase reporter assay system (Promega), luciferase activities were measured according to the manufacturer’s instructions. Experimental firefly luciferase activities were normalized against those of Renilla luciferase."}, "[2]": {"system": "HMO6 cell line", "test": "Cell viability assay (MTT), HMO6", "type": "cell-based", "details": "48 h", "description": "Cell viability was measured by chromogenic assay involving the biological reduction of 3-(4,5-dimethyl-thiazol-2-yl)-2,5-diphenyltetrazoliumbromide (MTT) to formazan in living cells. Briefly, cells were seeded in 96-well plates in a final volume of 100 μL. After 24 h, the culture media were replaced with fresh media containing DTMB compounds, and the cells were cultured for another 48 h. Next, MTT (5 mg/mL in PBS) was added to the culture medium. The cells were incubated for 1 h in the dark at 37 °C, and the supernatant was then removed from the well. Total MTT solvent (4 mM HCl and 0.1% Nonidet P-40, both in isopropanol) was added to dissolve the formazan crystal, and absorbance was measured at 570 nm using a microplate reader Infinite 200 Pro NanoQuant microplate reader (TECAN, Switzerland)."}, "[3]": {"system": "primary microglia", "test": "Quantitative PCR of NF-κB target genes in primary microglia", "type": "cell-based, mice", "description": "(§1) Primary microglia culture was conducted as described in a previous study. Mice at postnatal day 3 mice were used for the preparation of primary microglia. Newborn mice pups were anesthetized in ice and then sacrificed. Isolated cortex and hippocampus were collected after removing the meninges. Brain tissues were dissociated by incubating in HBSS (Gibco, Gaithersburg, MD, USA) with trypsin (2.5%) for 15 min. Cell homogenates were then incubated in M-CSF (20 ng/mL, R&D Systems) supplemented with DMEM-F12 medium with 10% fetal bovine serum, 10% horse serum, 1% GlutaMAX (Gibco, MD, USA), and 1% penicillin/streptomycin (Welgene, Korea). After 10 days, microglia were purified through shaking at 260 rpm for 2 h.\nTotal RNA was isolated using TRI Reagent (Molecular Research Center, Cincinnati, OH, USA). RNA was reverse transcribed using the ImProm-II™ Reverse Transcription System (Promega) according to the manufacturer’s instructions. For detection and quantification, a StepOnePlus Real-Time PCR System (Applied Biosystems, Foster City, CA, USA) was used with FastStart Universal SYBR Green Master (Roche, Basel, Switzerland). Real-time qPCR data were analyzed using the comparative CT method. Sample sizes were 10–15 mice per group."}, "[4]": {"system": "primary microglia", "test": "Western blot of NF-κB, NLRP3 and ASC in primary microglia", "type": "cell-based, mice", "details": "DTMB 25 µM, 24 h", "description": "as §1\nCells were lysed with lysis buffer containing 50 mM Tris (pH 7.4), 140 mM NaCl, 5 mM EDTA, and a protease inhibitor tablet, followed by sonication. Lysate protein concentrations were determined using Bradford reagents (AMERSCO, MA, USA). Proteins were resolved by sodium dodecyl sulfate (SDS) polyacrylamide gel electrophoresis, transferred to nitrocellulose membranes (Pall Corporation, New York, NY, USA), and incubated with blocking buffer (5% nonfat dry milk in TBS and 0.1% Tween 20) for 30 min. Western blot analyses were performed using primary antibodies against NF-κB, NLRP3, ASC, nicastrin, pen2 (Cell Signaling Technology, Danvers, MA, USA), Aph1 (Invitrogen), amyloid C-terminal fragment (Santa Cruz Biotechnology, Dallas, TX, USA), and GAPDH (Bethyl Laboratories, Mongomery, TX, USA). Secondary antibodies of rabbit (Promega), rat, and goat (Bethyl Laboratories) were used, and detection was performed with SUPEX ECL reagent (Neuronex, Korea) and an ImageQuant LAS-4000 (GE Healthcare, MA, USA), according to the manufacturer’s instructions. The integrated blot density was quantified through ImageJ."}, "[5]": {"system": "5xFAD mice", "test": "Soluble/insoluble Aβ extraction, western blot and filter-trap assay", "type": "in vivo", "details": "10 mg/kg orally, 3 months", "description": "DTMB was synthesized from Daejung Chemicals (Korea) and was dissolved in dimethyl sulfoxide (Sigma Aldrich, St. Louis, MO, USA) for cell-based experiments. To evaluate the effects of DTMB on 5xFAD mice, DTMB (10 mg/kg) and vehicle (1% carboxymethylcellulose and 10% DMSO) were orally administrated to four groups (wild-type, wild-type + DTMB, 5xFAD, and 5xFAD + DTMB) with a 6 day per week for 3 months.\nTo investigate soluble and insoluble Aβ components, two extraction steps were performed. Left hemisphere samples were homogenized in cold Tris-buffered saline (TBS consisting of 50 mM Tris-pH 7.5 and 150 mM NaCl) with a protease inhibitor cocktail (Thermo Fisher Scientific, Waltham, MO, USA) at a concentration of 100 mg/mL. After centrifugation at 15,000 rpm for 1 h at 4 °C, the supernatant of the samples was used to conduct western blotting. Insoluble protein was extracted from the pellet by dissolving in 5 M guanidine buffer (5 M guanidine HCl and 150 mM NaCl-pH 7.5). Soluble and insoluble protein samples were stored at −80 °C.\nThe insoluble fraction of protein lysates in 5xFAD mice was diluted in 1% SDS-PBS and boiled at 95 °C for 5 min. The membrane was pre-equilibrated with 1 × TBS. A dot blotter apparatus (Bio-Rad Laboratories, Hercules, CA, USA) was used for sample application, and 6e10 antibody was used to detect Aβ contents from brain lysates of 5xFAD mice treated with DTMB. […]"}}}
{"smiles": "COc1ccc(-c2cc(=O)oc3c(C)c(OC(=O)[C@H](Cc4c[nH]c5ccccc45)NC(=O)OC(C)(C)C)ccc23)cc1", "note": "[DTMB]", "values": [{"measurement": "relative luciferase activity", "setting": "[1]; HEK293A, 24 h, various concentrations", "value": "increased luciferase activity"}, {"measurement": "transactivation (luciferase activity) compared to positive control", "setting": "[1]; versus WY14643", "value": "stronger than the positive control"}, {"measurement": "cytotoxicity (MTT)", "setting": "[2]", "value": "no cytotoxicity"}, {"measurement": "mRNA levels of NFκB", "setting": "[3]", "value": "no change"}, {"measurement": "expression of NF-κB target genes Il-6, Il-1β, and Inos", "setting": "[3]; primary microglia, mRNA", "value": "decreased"}, {"measurement": "expression of anti-inflammatory marker (Arg-1)", "setting": "[3]; primary microglia, mRNA", "value": "induced"}, {"measurement": "protein level of ASC", "setting": "[4]", "value": "not changed"}, {"measurement": "protein level of NF-κB", "setting": "[4]", "value": "decreased"}, {"measurement": "protein level of NLRP3", "setting": "[4]", "value": "decreased"}, {"measurement": "Aβ aggregates in the insoluble fraction", "setting": "[5]; 5xFAD mice brain lysates", "value": "decreased"}, {"measurement": "amyloid beta monomer", "setting": "[5]; 5xFAD mice brain", "value": "not decreased"}]}
